Source: ChEMBL document CHEMBL3621085, “Tetrazole regioisomers in the development of nitro group-containing antitubercular agents” (Medchemcomm, 2015)
Converted amounts (≈) assume the structure as drawn. The source made the active and inactive calls. The calls are words filed in the database; no cut-off is given here.

Tests used:
[1] = Cytotoxicity against CHOK1 cells assessed as viability after 24 hrs by MTT assay; format: cell-based; conditions: Cricetulus griseus, CHO-K1, 24 h
[2] = system: Salmonella typhimurium; test: Mutagenic activity in Salmonella typhimurium TA100 assessed as induction of reverse mutation at 50 uM; format: toxicity, organism-based; conditions: salmonella enterica subsp. enterica serovar typhimurium
[3] = system: Mycobacterium tuberculosis; test: Antimycobacterial activity against Mycobacterium tuberculosis My 331/88 after 14 days by micromethod; format: functional; conditions: My 331/88, 336 h
[4] = system: Mycobacterium avium; test: Antimycobacterial activity against Mycobacterium avium My 330/88 after 21 days by micromethod; format: functional; conditions: My 330/88, 504 h
[5] = system: Mycobacterium kansasii; test: Antimycobacterial activity against Mycobacterium kansasii My 235/80 after 14 days by micromethod; format: functional; conditions: My 235/80, 336 h
[6] = system: Salmonella typhimurium; test: Mutagenic activity in Salmonella typhimurium TA98 assessed as induction of reverse mutation at 50 uM; format: toxicity, organism-based; conditions: salmonella enterica subsp. enterica serovar typhimurium
[7] = system: Mycobacterium tuberculosis; test: Antimycobacterial activity against Mycobacterium tuberculosis My 331/88 after 21 days by micromethod; format: functional; conditions: My 331/88, 504 h
[8] = system: Mycobacterium kansasii; test: Antimycobacterial activity against Mycobacterium kansasii My 235/80 after 21 days by micromethod; format: functional; conditions: My 235/80, 504 h
[9] = system: Mycobacterium kansasii; test: Antimycobacterial activity against Mycobacterium kansasii 6509/96 after 14 days by micromethod; format: functional; conditions: 6509/96, 336 h
[10] = system: Mycobacterium kansasii; test: Antimycobacterial activity against Mycobacterium kansasii 6509/96 after 21 days by micromethod; format: functional; conditions: 6509/96, 504 h
[11] = system: Mycobacterium avium; test: Antimycobacterial activity against Mycobacterium avium My 330/88 after 14 days by micromethod; format: functional; conditions: My 330/88, 336 h
[12] = system: Mycobacterium kansasii; test: Antimycobacterial activity against Mycobacterium kansasii 6509/96 after 7 days by micromethod; format: functional; conditions: 6509/96, 168 h
[13] = system: Mycobacterium kansasii; test: Antimycobacterial activity against Mycobacterium kansasii My 235/80 after 7 days by micromethod; format: functional; conditions: My 235/80, 168 h
[14] = system: Staphylococcus epidermidis; test: Antibacterial activity against Staphylococcus epidermidis H 6966/08 after 24 to 48 hrs by broth micro dilution method; format: functional, organism-based
[15] = system: Pichia kudriavzevii; test: Antifungal activity against Candida krusei E28 after 24 to 48 hrs by broth micro dilution method; format: functional, organism-based
[16] = system: Pseudomonas aeruginosa; test: Antibacterial activity against Pseudomonas aeruginosa ATCC 9027 after 24 to 48 hrs by broth micro dilution method; format: functional, organism-based
[17] = system: Staphylococcus aureus; test: Antibacterial activity against methicillin-resistant Staphylococcus aureus H 5996/08 after 24 to 48 hrs by broth micro dilution method; format: functional, organism-based
[18] = system: Escherichia coli; test: Antibacterial activity against Escherichia coli ATCC 8739 after 24 to 48 hrs by broth micro dilution method; format: functional, organism-based
[19] = system: Candida tropicalis; test: Antifungal activity against Candida tropicalis 156 after 24 to 48 hrs by broth micro dilution method; format: functional, organism-based
[20] = system: Klebsiella pneumoniae; test: Antibacterial activity against Klebsiella pneumoniae D 11750/08 after 24 to 48 hrs by broth micro dilution method; format: functional, organism-based
[21] = system: Enterococcus faecalis; test: Antibacterial activity against Enterococcus faecalis J 14365/08 after 24 to 48 hrs by broth micro dilution method; format: functional, organism-based
[22] = system: Klebsiella pneumoniae; test: Antibacterial activity against ESBL positive Klebsiella pneumoniae J 14368/08 after 24 to 48 hrs by broth micro dilution method; format: functional, organism-based
[23] = system: Trichosporon asahii; test: Antifungal activity against Trichosporon asahii 1188 after 24 to 48 hrs by broth micro dilution method; format: functional, organism-based
[24] = system: Staphylococcus aureus; test: Antibacterial activity against Staphylococcus aureus ATCC 6538 after 24 to 48 hrs by broth micro dilution method; format: functional, organism-based
[25] = system: Nakaseomyces glabratus; test: Antifungal activity against Candida glabrata 20/I after 24 to 48 hrs by broth micro dilution method; format: functional, organism-based
[26] = system: Lichtheimia corymbifera; test: Antifungal activity against Absidia corymbifera 272 after 24 to 48 hrs by broth micro dilution method; format: functional, organism-based
[27] = system: Klebsiella pneumoniae; test: Antibacterial activity against Klebsiella pneumoniae J 14368/08 after 24 to 48 hrs by broth micro dilution method; format: functional, organism-based
[28] = system: Aspergillus fumigatus; test: Antifungal activity against Aspergillus fumigatus 2318 after 24 to 48 hrs by broth micro dilution method; format: functional, organism-based
[29] = system: Trichophyton mentagrophytes; test: Antifungal activity against Trichophyton mentagrophytes 445 after 72 to 120 hrs by broth micro dilution method; format: functional, organism-based
[30] = system: Candida albicans; test: Antifungal activity against Candida albicans ATCC 44859 after 24 to 48 hrs by broth micro dilution method; format: functional, organism-based
[31] = biological target: T1, Heme oxygenase 1 (Homo sapiens, UniProt P09601); test: Inhibition of heme oxygenase-1 (unknown origin)
T1 sequence (P09601 whole entry): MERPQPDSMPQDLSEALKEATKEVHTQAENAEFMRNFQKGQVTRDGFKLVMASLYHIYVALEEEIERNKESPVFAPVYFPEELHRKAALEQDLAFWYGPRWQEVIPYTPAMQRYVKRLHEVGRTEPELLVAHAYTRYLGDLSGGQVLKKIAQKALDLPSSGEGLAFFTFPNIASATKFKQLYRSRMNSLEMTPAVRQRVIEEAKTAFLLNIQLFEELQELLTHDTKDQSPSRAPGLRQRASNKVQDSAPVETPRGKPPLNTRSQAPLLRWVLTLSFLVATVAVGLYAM

SMILES | IC50 [1] | Activity [2] | MIC [3] | MIC [4] | MIC [5] | Activity [6] | MIC [7] | MIC [8] | MIC [9] | MIC [10] | MIC [11] | MIC [12] | MIC [13] | Activity [14] | Activity [15] | Activity [16] | Activity [17] | Activity [18] | Activity [19] | Activity [20] | also measured
O=[N+]([O-])c1cc(CSc2nnn(Cc3ccc(Cl)cc3)n2)cc([N+](=O)[O-])c1 | 301 µM | Toxic | 1 µM (≈ 0.407 µg/mL) | 16 µM (≈ 6.51 µg/mL) | 8 µM (≈ 3.25 µg/mL) | Toxic | 2 µM (≈ 0.814 µg/mL) | 16 µM (≈ 6.51 µg/mL) | 16 µM (≈ 6.51 µg/mL) | 32 µM (≈ 13 µg/mL) | 16 µM (≈ 6.51 µg/mL) | 16 µM (≈ 6.51 µg/mL) | 4 µM (≈ 1.63 µg/mL) |  |  |  |  |  |  |  | 
O=[N+]([O-])c1cc(C[Se]c2nnn(Cc3ccccc3)n2)cc([N+](=O)[O-])c1 | 136 µM | Toxic | 1 µM (≈ 0.419 µg/mL) | 32 µM (≈ 13.4 µg/mL) | 1 µM (≈ 0.419 µg/mL) | Toxic | 1 µM (≈ 0.419 µg/mL) | 1 µM (≈ 0.419 µg/mL) | 1 µM (≈ 0.419 µg/mL) | 2 µM (≈ 0.839 µg/mL) | 16 µM (≈ 6.71 µg/mL) | 1 µM (≈ 0.419 µg/mL) | 1 µM (≈ 0.419 µg/mL) | inactive | inactive | inactive | inactive | inactive | inactive | inactive | Activity [21]: inactive; Activity [22]: inactive; Activity [23]: inactive; Activity [24]: inactive; Activity [25]: inactive; Activity [26]: inactive; Activity [27]: inactive; Activity [28]: inactive; Activity [29]: inactive; Activity [30]: inactive
O=[N+]([O-])c1cc(CSc2nnnn2Cc2ccc(Cl)cc2)cc([N+](=O)[O-])c1 | 94 µM | Toxic | 2 µM (≈ 0.814 µg/mL) | 125 µM (≈ 50.9 µg/mL) | 2 µM (≈ 0.814 µg/mL) | Toxic | 4 µM (≈ 1.63 µg/mL) | 4 µM (≈ 1.63 µg/mL) | 8 µM (≈ 3.25 µg/mL) | 8 µM (≈ 3.25 µg/mL) | 125 µM (≈ 50.9 µg/mL) | 4 µM (≈ 1.63 µg/mL) | 2 µM (≈ 0.814 µg/mL) |  |  |  |  |  |  |  | 
O=[N+]([O-])c1cc(C[Se]c2nnnn2Cc2ccccc2)cc([N+](=O)[O-])c1 | 71 µM | Toxic | 1 µM (≈ 0.419 µg/mL) | 32 µM (≈ 13.4 µg/mL) | 4 µM (≈ 1.68 µg/mL) | Toxic | 2 µM (≈ 0.839 µg/mL) | 4 µM (≈ 1.68 µg/mL) | 8 µM (≈ 3.35 µg/mL) | 8 µM (≈ 3.35 µg/mL) | 32 µM (≈ 13.4 µg/mL) | 4 µM (≈ 1.68 µg/mL) | 2 µM (≈ 0.839 µg/mL) | inactive | inactive | inactive | inactive | inactive | inactive | inactive | Activity [21]: inactive; Activity [22]: inactive; Activity [23]: inactive; Activity [24]: inactive; Activity [25]: inactive; Activity [26]: inactive; Activity [27]: inactive; Activity [28]: inactive; Activity [29]: inactive; Activity [30]: inactive
O=C(CCc1ccccc1)Cn1cnnn1 |  |  |  |  |  |  |  |  |  |  |  |  |  |  |  |  |  |  |  |  | IC50 [31]: 2.6 µM
O=[N+]([O-])c1cc(CSc2nnnn2Cc2ccccc2)cc([N+](=O)[O-])c1 | 59 µM | Non-toxic | 1 µM (≈ 0.372 µg/mL) | 250 µM (≈ 93.1 µg/mL) | 8 µM (≈ 2.98 µg/mL) | Non-toxic | 2 µM (≈ 0.745 µg/mL) | 8 µM (≈ 2.98 µg/mL) | 4 µM (≈ 1.49 µg/mL) | 4 µM (≈ 1.49 µg/mL) | 250 µM (≈ 93.1 µg/mL) | 2 µM (≈ 0.745 µg/mL) | 2 µM (≈ 0.745 µg/mL) | inactive | inactive | inactive | inactive | inactive | inactive | inactive | Activity [21]: inactive; Activity [22]: inactive; Activity [23]: inactive; Activity [24]: inactive; Activity [25]: inactive; Activity [26]: inactive; Activity [27]: inactive; Activity [28]: inactive; Activity [29]: inactive; Activity [30]: inactive
O=[N+]([O-])c1cc(CSc2nnn(Cc3ccccc3)n2)cc([N+](=O)[O-])c1 | 41 µM | Toxic | 1 µM (≈ 0.372 µg/mL) | 125 µM (≈ 46.5 µg/mL) | 16 µM (≈ 5.96 µg/mL) | Toxic | 1 µM (≈ 0.372 µg/mL) | 16 µM (≈ 5.96 µg/mL) | 4 µM (≈ 1.49 µg/mL) | 8 µM (≈ 2.98 µg/mL) | 62 µM (≈ 23.1 µg/mL) | 4 µM (≈ 1.49 µg/mL) | 8 µM (≈ 2.98 µg/mL) | inactive | inactive | inactive | inactive | inactive | inactive | inactive | Activity [21]: inactive; Activity [22]: inactive; Activity [23]: inactive; Activity [24]: inactive; Activity [25]: inactive; Activity [26]: inactive; Activity [27]: inactive; Activity [28]: inactive; Activity [29]: inactive; Activity [30]: inactive
